What is called CC50 is the concentration that lowers cell viability or growth by half.

Consider 6 molecules from publication PMC10451668, “Natural Acetogenins, Chatenaytrienins-1, -2, -3 and -4, Mitochondrial Potential Uncouplers and Autophagy Inducers—Promising Anticancer Agents” (Antioxidants, 2023).

The subject of one data set is Jurkat cell lysates. Kind of data set: Multiplex analysis of signaling, genotoxicity and early apoptosis proteins (MILLIPLEX MAP, Luminex). In kind it is cell-based, human. As for the experimental part:
Multiplex analysis was performed according to a previously published method. MILLIPLEX®MAP technology is used to determine the total protein or phosphorylated protein levels of various biological analytes, such as kinases or signaling proteins, including CREB, ERK/MAP, p70 S6, p21, p38, PI3K/AKT/mTOR, JNK (A), p53, MDM2, Bcl-2/Bax, STAT3 and STAT5, Nf-kB, Caspase 3-8-9, JNK, ATM, Chk1, Chk2, and H2AX, in cell lysates using the Luminex® system ((MILLIPLEX Multi-Pathway Magnetic Bead 9-Plex—Cell Signaling Multiplex Assay kit, Merk, Germany). This MILLIPLEX®MAP technology provides an alternative to Western blotting and immunoprecipitation and has several important advantages, such as more accurate measurement of small amounts of protein and the elimination of analyte loss during sample preparation. The multiplex immunoassay (MILLIPLEX 48-680MAG; Merck Millipore, Germany) was performed in Millipore 96-well plates to detect changes in concentrations of phosphorylated and unphosphorylated proteins p53, MDM2, p21, p38, PI3K/AKT/mTOR, Bcl-2/Bax, STAT3 and STAT5, Nf-kB, Caspase 3 -8-9, CREB, ERK/MAP, p70 S6, JNK, ATM, Chk1, Chk2, and H2AX in Jurkat cell lysates.
The levels of phosphorylated and non-phosphorylated proteins were analyzed using MILLIPLEX® map technology to study the analytes in the same sample within a fairly short time. Various deviations in protein concentration due to external factors or detection errors that could affect the results of the experiment were thereby reduced to zero.
The expression of p53, MDM2, p21, p38, PI3K/AKT/mTOR, Bcl-2/Bax, STAT3 and STAT5, Nf-kB, Caspase 3-8-9, CREB, ERK/MAP, p70 S6, JNK, ATM, Chk1, Chk2, and H2AX proteins in lysate samples of Jurkat tumor cells were studied using Luminex technology with the MILLIPLEX® MAP 9-Plex Multi-Pathway 9-plex Magnetic Bead Kit. This bead-based assay involved color-coded fluorescent particles pre-coated with specific antibodies targeting 9 major kinases in signaling pathways.

In a further data set the test system is U937. Nature of the data set: Cytotoxicity assay (7-AAD viability, flow cytometry). In kind it is cell-based, human. Particulars: ± standard error of the mean, 95% CI in parenthesis. From the text: (§1) Cells, including Jurkat E6.1 (human leukemic T cell lymphoblasts, catalogue no. 88042803), K562 (human chronic myelogenous leukemia cells, catalogue no. 89121407), U937 (human histiocytic lymphoma cells, catalogue no. 85011440), HL60 (human promyelocytic leukemia cells, catalog no. 98070106), HEK293 (human embryonic kidney cells with adenovirus, catalog no. 85120602), and human lung fibroblasts Ce (catalogue no. 90011883), were purchased from the European Collection of Authenticated Cell Cultures (UK Health Security Agency) and cultured according to standard protocols using sterile techniques. […] Cells were maintained in RPMI 1640 (Jurkat, K562, U937, and HL60) and DME M (fibroblast and HEK293) (Gibco) supplemented with […] glutamine, 10% FBS (Sigma), and 100 units/mL penicillin-streptomycin (Sigma). All types of cells were grown under an atmosphere of 5% CO2 at 37 °C. The cells were subcultured at 2–3-day intervals. Cells were then seeded in 24-well plates at 5 × 10^4 cells per well and incubated overnight. Jurkat, K562, U937, HL60, HEK293, and fibroblast cells were subcultured at 2-day intervals with a seeding density of 1 × 10^5 cells per well in 24-well plates in RPMI with 10% FBS.
(§2) Viability (live/dead) assessment was performed by staining cells with 7-AAD (7-aminoactinomycin D; Biolegend). After treatment, cells were harvested, washed 1–2 times with phosphate-buffered saline (PBS), and centrifuged at 400× g for 5 min. Cell pellets were resuspended in 200 µL of flow cytometry staining buffer (PBS without Ca^2+ and Mg^2+, 2.5% FBS) and stained with […] of 7-AAD staining solution for 15 min at room temperature in the dark. Samples were assessed using the NovoCyte Penteon Flow Cytometer System (Agilent, 5301 Stevens Creek Blvd., Santa Clara, CA, USA). Detection of 7-AAD emission was collected through a 675/30 nm filter in the FL4 channel.
For orientation: Flow cytometry measures light scatter and fluorescence of single cells or particles in a stream.

The subject of another data set is Jurkat. The description is as above. Particulars: ± standard error of the mean, 95% CI in parenthesis. In kind it is cell-based, human.
Description: as §1, §2

The subject of another data set is K562. Described as above. Type of data set: cell-based, human. Particulars: ± standard error of the mean, 95% CI in parenthesis.
Description: as §1, §2

In another data set the test system is HL60. The data set is described as above. In kind it is cell-based, human. Conditions: ± standard error of the mean, 95% CI in parenthesis.
Description: as §1, §2

The next data set has as its system Hek293. Described as above. Type of data set: cell-based, human. Conditions: Hek293, conditionally normal line; ± standard error of the mean, 95% CI in parenthesis.
Description: as §1, §2

The test system of data set [1] is Fibroblasts (PCS-201-018). The description is as above. Type of data set: cell-based, human. Conditions: normal fibroblasts; ± standard error of the mean, 95% CI in parenthesis.
In data set [2] the test system is Jurkat cells. Kind of data set: Detection of mitodamage: mitochondrial membrane potential and apoptosis (MitoSense Red, annexin V, 7-AAD). Conditions: compound at CC50, 4 h; for cells in late apoptosis (stained with 7-AAD): Jurkat; for Jurkat tumor cells with the Δψ dissipation phenomenon: MitoSense Red. Type of data set: cell-based, human. The text has this:
The use of reagents MitoSense Red, annexin V, and 7-AAD in the Millipore FlowCellect™ MitoDamage Kit allowed us to gain information on early, mid, and late apoptosis with one simple assay. […] After this time, the cells were dissociated using an accutase solution, stained, and analyzed using the NovoCyte Penteon Flow Cytometer System (Agilent, 5301 Stevens Creek Blvd., Santa Clara, CA, USA), according to the manufacturer’s protocols for the FlowCellect™ MitoDamage Kit and FlowCellect™ Oxidative Stress Characterization Kit (Merck).
Detection of mitochondrial potential dissipation using MitoSense Red, annexin V, and 7-AAD provided a simultaneous measurement of three important parameters of the cell state within the same cell sample: the state of the mitochondrial potential (Δψ), detected by the membrane-penetrating MitoSense Red dye; the expression of phosphatidylserine on the cell surface of apoptotic cells, assessed by the binding of annexin V to externalized phosphatidylserine; and the binding of 7-AAD to DNA in cells in the late stages of apoptosis. Multiparametric evaluation of these indicators of cell viability made it possible to determine the correlation and relationship between oxidation dissipation and phosphorylation with apoptosis.

Data set [3] relates to Jurkat cells. Nature of the data set: Assessment of autophagy (anti-LC3/FITC, flow cytometry). Particulars: 0.5 CC50, 48 h. Type of data set: cell-based, human. From the text: Autophagy is involved in various physiological processes and its changes are associated with the pathogenesis of diseases such as neurodegenerative diseases, cardiovascular complications, cancer, and infectious diseases, as well as with physiological processes such as innate and specific immunity, pathogen clearance, lymphocyte selection, antigen presentation, and production of immunoglobulins. Therefore, the determination of LC3 protein inside autophagosomes without the cytosolic form of LC3-I at the stage of selective cell permeability was measured using flow cytometry. Thus, using the FlowCellect™ LC3-GFP Reporter Autophagy Assay Kit (FCCH100170 and FCCH100181), flow cytometry allowed for a rapid assay that could be combined with other phenotypic and functional markers to characterize different cell populations.
Canonical autophagy is associated with the conversion of LC3 protein (an autophagosome marker) from the cytoplasmic form of LC3I to the lipid-bound form of LC3II, which is associated with the membranes of maturing autophagosomes. The autophagy process can be conveniently classified into several stages. First, induction and translocation of the cytoplasmic LC3 protein occur due to the influence of external stimuli (adverse environmental influences)—the process is initiated by external/internal stimuli (for example, nutrient depletion or hypoxia). Then, the formation of autophagosomes begins, which are double-membrane vesicles that include the LC3 protein. This protein regulates the fusion of autophagosomes and lysosomes. It exists in two fractions—cytoplasmic LC3-I and LC3-II, isolated in the autophagosomal membrane. The LC3-II protein fraction was specified in our work, as its detection is a reliable indicator of the processes of autophagy in the cell.

The subject of data set [4] is Jurkat cells. Nature of the data set: Oxidative stress and early apoptosis (MitoSOX Red and annexin V, MitoStress Kit). Type of data set: cell-based, human. The text has this:
Changes in the mitochondrial membrane potential (ΔΨ) in Jurkat cells induced by treatment with the synthesized compounds were detected using MitoSOX Red, a positively charged probe that accumulates rapidly in mitochondria and as such can be used to detect superoxide/ROS production within mitochondria using fluorometry, microscopy, or flow cytometry. Live cells induced a low level of MitoSOX Red fluorescence, while cells with scattered mitochondrial membrane potential caused much higher MitoSOX Red fluorescence. Annexin V is a dye commonly used to detect early signs of apoptosis. […] Thus, using two different dyes, MitoSOX Red and annexin V (CF488A), in the FlowCellect™ MitoStress Kit (FCCH100109), we analyzed the mitochondrial membrane potential dissipation and associated apoptosis in Jurkat cells in response to the synthesized chatenaytrienins.
Therefore, simultaneous detection of mitochondrial superoxide generation (detected by MitoSOX Red membrane-penetrating dye) and expression of phosphatidylserine on the cell surface of apoptotic cells (assessed by binding of annexin V) in the same cell sample provides an accurate evaluation of the ability of the test compound to initiate oxidative stress in cell culture and induce apoptosis.

Another data set has as its system Jurkat tumor cell line. Nature of the data set: Assessment of cytochrome c loss (FlowCellect Cytochrome c Kit). Type of data set: cell-based, human. Conditions: compound at CC50, incubation 3 h, anti-cytochrome c-FITC. As for the experimental part:
Quantification of cytochrome c release from mitochondria in apoptotic cells was presented to detect the mitochondrial pathway of apoptosis in cells using flow cytometry with the FlowCellect™ Cytochrome c Kit (FCCH100110). For this, cells were treated with FITC-conjugated antibodies against cytochrome c and control anti-IgG1-FITC, together with the use of an optimized fixation procedure, permeabilization, and blocking buffer (Luminex®, USA). […] Jurkat cells were incubated for 4 h with the synthesized substances at a concentration corresponding to their 24-h CC50 in a culture plate and assessed using the NovoCyte Penteon Flow Cytometer System (Agilent, 5301 Stevens Creek Blvd., Santa Clara, CA, USA). The obtained data were processed using NovoExpress® software (ACEA).

In a further data set the test system is T24 bladder cancer cells. Also on record: method as in PMID 16154156. Particulars: cited from earlier work.

With `CCCCCCCCCCCC/C=C\CC/C=C\CCCCCCCCCCCCC1=C[C@H](C)OC1=O` [muricadienin, reference compound], the “expression of caspase-8” value with Jurkat cell lysates (6 h and 12 h) is recorded as “did not significantly affect”. Besides, the “concentration of p53” value with Jurkat cell lysates (after 12 h of incubation, versus control) is reported as “significantly increased”. For the same molecule, the “levels of all types of kinase proteins (CREB, JNK, NFkB, p38, ERK1/2, Akt, p70S6K, STAT3, STAT5)” value in the data set with Jurkat cell lysates (compound at CC50, 4 h, MFI versus intact cells) is given as “most pronouncedly reduced”. Further, the “cleaved caspase-9” value in the data set with Jurkat cell lysates (especially after 12 h, level exceeded control) is “promoted the accumulation”. Also, the “level of BAD protein” value in the data set with Jurkat cell lysates (first 6 h, within 12 h began to increase again, not reaching control) was “decreased”.

With chatenaytrienin-4 [compound 4], the cytotoxic concentration (CC50) turned out to be 130 ± 50 nM in the data set with U937; 160 ± 10 nM in the data set on Jurkat; 130 ± 40 nM in the data set on K562; 190 ± 20 nM in the data set with HL60; 530 ± 10 nM in the data set with Hek293; 980 ± 40 nM in data set [1]. Moreover, in the data set with Jurkat cells [2], the “cells in late apoptosis (stained with 7-AAD)” value (“cells in late apoptosis” below) was 1.88%. Besides, the “Jurkat tumor cells with the Δψ dissipation phenomenon” value with Jurkat cells [2] was determined as 53.51%. For the same molecule, the “cells with autophagy (gate M3-2)” value with Jurkat cells [3] is listed as 56.09%. Moreover, the “cells demonstrating oxidative stress along with the marker of early apoptosis, annexin” value in the data set on Jurkat cells [4] (compound at CC50, 4 h, MitoSOX Red and annexin V) was determined as 26.8%. The “cells with cytochrome c released into the cytoplasm (Negative gate)” value (“cells … (Negative gate)” for short) in the data set on Jurkat tumor cell line turned out to be 42.10%.

`CN[C@@H]1C[C@H]2O[C@@](C)([C@@H]1OC)n1c3ccccc3c3c4c(c5c6ccccc6n2c5c31)C(=O)NC4` [staurosporine, reference compound]: the “cells in late apoptosis” value with Jurkat cells [2] was 2.48%. In addition, the “cells … (Negative gate)” value in the data set on Jurkat tumor cell line amounted to 80.23%.

As to `CCCCCC[C@H](O)CCC[C@H](O)[C@H]1CC[C@H]([C@H]2CC[C@H]([C@H](O)CCCCCCCCCCCCC3=C[C@H](C)OC3=O)O2)O1` [squamocin], in the data set on T24 bladder cancer cells, the “effect on cell cycle” value was “blocked cells in the G1 phase”.

chatenaytrienin-3 [compound 3]: the CC50 in the data set with U937 came out at 180 ± 20 nM; in the data set with Jurkat, 150 ± 40 nM; in the data set with K562 it was 90 ± 10 nM; in the data set with HL60, 140 ± 40 nM; in the data set with Hek293, 780 ± 40 nM; in data set [1] it was 830 ± 50 nM. Moreover, the “cells in late apoptosis” value in the data set with Jurkat cells [2] came out at 17.01%. In the data set on Jurkat cells [2], the “Jurkat tumor cells with the Δψ dissipation phenomenon” value is recorded as 62.42%. Also, the “cells with autophagy (gate M3-2)” value in the data set with Jurkat cells [3] was found to be 91.50%. For the same molecule, in the data set with Jurkat cells [4] (compound at CC50, 4 h), the “intact (live) cells in the sample” value came to 9.9%. For the same molecule, the “cells … (Negative gate)” value in the data set with Jurkat tumor cell line amounted to 41.99%.

For `CCCCCC[C@H]1C(=O)O[C@H](C)[C@H](NC(=O)c2cccc(NC=O)c2O)C(=O)O[C@@H](C)[C@@H]1OC(=O)CC(C)C` [antimycin, reference compound], the “intact (live) cells in the sample” value with Jurkat cells [4] (antimycin 100 µM, 4 h) came to 12.65%.
